From article PMC8355244, “A fragment-based approach identifies an allosteric pocket that impacts malate dehydrogenase activity” (Communications Biology, 2021)
Several values for one entry are separate records, joined by “and”; a condition that tells them apart may be missing. Equal entries are not always repeated. Where two headings read alike, the source gives them in different places.

How the values were obtained:
WT PfMDH = biological target: T1, WT PfMDH (Plasmodium falciparum, UniProt Q6VVP7); experiment: Activity screening of 4DT / 4-phenylthiazol-2-amine derivatives (oxidation of malate, absorbance at 340 nm); format: biochemical; conditions: for inhibition at 500 µM: Dunnett's multiple comparisons test, read-out: Mean Diff. (positive control vs. compound); for Slope repl1 / Slope repl2: linear regression slope of absorbance 340 nm vs time; for Slope normalized repl1: slope relative to control = 1, replicate 1; for Slope normalized repl2: slope relative to control = 1, replicate 2
T1 construct: The full-length WT PfMDH gene was cloned into pETM-13; made in house; host or cells: E. coli Rosetta 2 (DE3) pLysS
Experimental: The oxidation of malate to oxaloacetate was assayed spectrophotometrically in flat-bottomed Corning 96-well microplates in a total volume of 250.0 µl in 50 mM glycine buffer pH 10.2[24] with an additional 400 mM NaCl for protein stability. The increase of absorbance at 340 nm was recorded in kinetic mode using a Tecan Spark multimode microplate reader at 298 K. A mastermix of 50 mM NAD+ and 44 μM PfMDH was used for both the screening and kinetics experiments. The final concentration of protein and cofactor were […], respectively. Positive control groups were set (absence of compound) in the same plate as the treated group. The absorbance from the background noise was subtracted from the data and then a linear regression model was employed in order to get the line slope from the first 5 min of the reaction. The percentage of enzymatic activity has been calculated as described by Eq. (1)1 enzymeactivity(%)=slopetreated/slopepositivecontrol*100
1.3 µL of derivatives of 4-phenylthiazol-2-amine in 100% DMSO were mixed with 237.7 µL of a mastermix of WT PfMDH previously incubated with NAD+. The final compound concentration used in this screening was 500 µM in the presence of 0.5% (v/v) DMSO. The microplate was sealed with silver foil for 1-h incubation at 25–35 °C. Finally, reactions in both the samples and control wells were started upon the addition of 13.0 µL of 5 mM malate). At the end of the experiments, the reaction of the plate was spectrophotometrically assayed at 600 nm in order to identify turbidity due to the low solubility of the compound. All measurements were performed in duplicate.

PfMDH = biological target: T2, PfMDH (Plasmodium falciparum, UniProt Q6VVP7); experiment: Thermal shift assay (TSA); format: binding; conditions: for TSA melting curve raw signal: triplicate columns; for TSA melting curve raw fluorescence signal: three replicate columns
T2 construct: The full-length WT PfMDH gene was cloned into pETM-13; made in house; host or cells: E. coli Rosetta 2 (DE3) pLysS
Experimental: The TSA experiment was conducted in a BioRad CSX 96 (Biorad). Each reaction consisted of 1 mM of compound (100 mM stock in 100% (v/v) DMSO) and 10 μM PfMDH in 100 mM Na–phosphate buffer pH 7.4, 400 mM NaCl, and 10× Sypro Orange (Invitrogen) for a total volume of 100 μl. Control experiments were performed with 1% (v/v) DMSO. Inflection points were determined using BioRad CFX96™ control software. Generally, a temperature increase of over 1 °C is interpreted as a result of the stabilization of the protein-ligand interaction. On the contrary, a negative shift is considered a destabilization caused by the fragment.

[1] = 500 µM compound, Dunnett test details, positive control mean 100, n 2, read-out: Mean 2 (mean % enzymatic activity of treated group)
[2] = 500 µM compound, control 100%, replicate 1, read-out: % enzymatic activity repl1
[3] = 500 µM compound, control 100%, replicate 2, read-out: % enzymatic activity repl2

T1 sequence (Q6VVP7 entry or part of it): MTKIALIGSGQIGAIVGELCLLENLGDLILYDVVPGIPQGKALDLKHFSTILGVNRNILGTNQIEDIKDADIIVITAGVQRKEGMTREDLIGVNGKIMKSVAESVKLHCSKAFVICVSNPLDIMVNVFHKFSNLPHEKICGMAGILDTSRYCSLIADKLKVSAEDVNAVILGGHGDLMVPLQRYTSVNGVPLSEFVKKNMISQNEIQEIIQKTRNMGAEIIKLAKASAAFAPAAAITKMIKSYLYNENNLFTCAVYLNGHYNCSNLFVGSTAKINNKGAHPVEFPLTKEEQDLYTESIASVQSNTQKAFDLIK
T2 sequence (Q6VVP7 entry or part of it): as above

## Nc1nc(-c2ccc(F)c(F)c2)cs1 [1a]
WT PfMDH; [1]
  remaining activity at 500 µM: 62%
WT PfMDH; 500 µM compound
  inhibition at 500 µM: 38.5%
  Slope normalized repl1: 0.6412
  Slope normalized repl2: 0.591
WT PfMDH; [2]
  remaining activity at 500 µM: 64%
WT PfMDH; [3]
  remaining activity at 500 µM: 59%
WT PfMDH; 500 µM compound, replicate 1
  Slope repl1: 0.02136
WT PfMDH; 500 µM compound, replicate 2
  Slope repl2: 0.02071
WT PfMDH; read-out: enzyme activity
  remaining activity at 500 µM: 62%

## NCc1ccc(-c2csnn2)cc1 [2b]
WT PfMDH; [1]
  remaining activity at 500 µM: 65%
WT PfMDH; 500 µM compound
  inhibition at 500 µM: 35%
  Slope normalized repl1: 0.8322
  Slope normalized repl2: 0.472
WT PfMDH; [2]
  remaining activity at 500 µM: 83%
WT PfMDH; [3]
  remaining activity at 500 µM: 47%
WT PfMDH; 500 µM compound, replicate 1
  Slope repl1: 0.02772
WT PfMDH; 500 µM compound, replicate 2
  Slope repl2: 0.01654
WT PfMDH; read-out: enzyme activity
  remaining activity at 500 µM: 65%

## CC(C)c1ccc(-c2csc(N)n2)cc1 [4PA-iPr]
PfMDH; Temperature 25
  TSA melting curve raw signal: 8994.553 and 9647.617 and 6438.185
PfMDH; Temperature 28.5
  TSA melting curve raw signal: 8708.714 and 9422.913 and 6243.713
PfMDH; Temperature 29
  TSA melting curve raw signal: 8666.326 and 9387.251 and 6213.386
PfMDH; Temperature 29.5
  TSA melting curve raw signal: 8621.607 and 9346.814 and 6180.231
PfMDH; Temperature 30
  TSA melting curve raw signal: 8573.486 and 9300.135 and 6142.94
PfMDH; Temperature 30.5
  TSA melting curve raw signal: 8522.699 and 9247.509 and 6102.88
PfMDH; Temperature 31
  TSA melting curve raw signal: 8469.615 and 9188.155 and 6059.768
PfMDH; Temperature 31.5
  TSA melting curve raw signal: 8414.733 and 9123.458 and 6015.201
PfMDH; Temperature 32
  TSA melting curve raw signal: 8359.407 and 9056.051 and 5970.18
PfMDH; Temperature 32.5
  TSA melting curve raw signal: 8304.924 and 8988.081 and 5926.995
PfMDH; Temperature 33
  TSA melting curve raw signal: 8252.482 and 8921.905 and 5886.489
PfMDH; Temperature 33.5
  TSA melting curve raw signal: 8202.645 and 8859.372 and 5849.818
PfMDH; Temperature 34
  TSA melting curve raw signal: 8155.604 and 8800.883 and 5816.694
PfMDH; Temperature 34.5
  TSA melting curve raw signal: 8111.732 and 8745.628 and 5787.575
PfMDH; Temperature 35
  TSA melting curve raw signal: 8070.534 and 8693.896 and 5761.965
PfMDH; Temperature 35.5
  TSA melting curve raw signal: 8031.026 and 8644.443 and 5738.964
PfMDH; Temperature 36
  TSA melting curve raw signal: 7993.542 and 8596.911 and 5718.436
PfMDH; Temperature 36.5
  TSA melting curve raw signal: 7957.673 and 8551.007 and 5700.528
PfMDH; Temperature 37
  TSA melting curve raw signal: 7922.464 and 8507.049 and 5684.445
PfMDH; Temperature 37.5
  TSA melting curve raw signal: 7887.874 and 8463.879 and 5669.608
PfMDH; Temperature 38
  TSA melting curve raw signal: 7853.441 and 8420.795 and 5655.816
PfMDH; Temperature 38.5
  TSA melting curve raw signal: 7818.479 and 8377.106 and 5642.728
PfMDH; Temperature 39
  TSA melting curve raw signal: 7782.8 and 8332.642 and 5629.831
PfMDH; Temperature 39.5
  TSA melting curve raw signal: 7746.169 and 8286.504 and 5617.536
PfMDH; Temperature 40
  TSA melting curve raw signal: 7708.198 and 8238.766 and 5605.837
PfMDH; Temperature 40.5
  TSA melting curve raw signal: 7669.164 and 8190.253 and 5594.748
PfMDH; Temperature 41
  TSA melting curve raw signal: 7629.283 and 8141.701 and 5584.57
PfMDH; Temperature 41.5
  TSA melting curve raw signal: 7588.559 and 8093.153 and 5575.514
PfMDH; Temperature 42
  TSA melting curve raw signal: 7547.254 and 8045.202 and 5567.299
PfMDH; Temperature 42.5
  TSA melting curve raw signal: 7505.687 and 7998.361 and 5560.186
PfMDH; Temperature 43
  TSA melting curve raw signal: 7464.06 and 7952.024 and 5554.6
PfMDH; Temperature 43.5
  TSA melting curve raw signal: 7421.867 and 7905.832 and 5550.504
PfMDH; Temperature 44
  TSA melting curve raw signal: 7379.597 and 7859.513 and 5547.899
PfMDH; Temperature 44.5
  TSA melting curve raw signal: 7337.446
PfMDH; Temperature 73.5
  TSA melting curve raw fluorescence signal: 5613.749 and 6203.164 and 5886.042
PfMDH; Temperature 74
  TSA melting curve raw fluorescence signal: 5569.101 and 6153.132 and 5854.081
PfMDH; Temperature 74.5
  TSA melting curve raw fluorescence signal: 5525.043 and 6104.144 and 5823.779
PfMDH; Temperature 75
  TSA melting curve raw fluorescence signal: 5482.121 and 6056.683 and 5794.617
PfMDH; Temperature 75.5
  TSA melting curve raw fluorescence signal: 5439.984 and 6011.409 and 5766.404
PfMDH; Temperature 76
  TSA melting curve raw fluorescence signal: 5398.991 and 5968.463 and 5738.594
PfMDH; Temperature 76.5
  TSA melting curve raw fluorescence signal: 5359.122 and 5928.32 and 5710.64
PfMDH; Temperature 77
  TSA melting curve raw fluorescence signal: 5320.849 and 5890.984 and 5682.195
PfMDH; Temperature 77.5
  TSA melting curve raw fluorescence signal: 5284.278 and 5856.438 and 5652.603
PfMDH; Temperature 78
  TSA melting curve raw fluorescence signal: 5250.129 and 5824.453 and 5622.025
PfMDH; Temperature 78.5
  TSA melting curve raw fluorescence signal: 5218.737 and 5795.085 and 5590.553
PfMDH; Temperature 79
  TSA melting curve raw fluorescence signal: 5190.081 and 5767.8 and 5558.166
PfMDH; Temperature 79.5
  TSA melting curve raw fluorescence signal: 5164.369 and 5742.56 and 5524.814
PfMDH; Temperature 80
  TSA melting curve raw fluorescence signal: 5141.29 and 5718.857 and 5491.376
PfMDH; Temperature 80.5
  TSA melting curve raw fluorescence signal: 5120.384 and 5696.2 and 5457.362
PfMDH; Temperature 81
  TSA melting curve raw fluorescence signal: 5101.31 and 5674.042 and 5422.806
PfMDH; Temperature 81.5
  TSA melting curve raw fluorescence signal: 5083.427 and 5652.313 and 5387.856
PfMDH; Temperature 82
  TSA melting curve raw fluorescence signal: 5065.661 and 5630.45 and 5352.463
PfMDH; Temperature 82.5
  TSA melting curve raw fluorescence signal: 5047.726 and 5608.308 and 5316.196
PfMDH; Temperature 83
  TSA melting curve raw fluorescence signal: 5028.992 and 5585.969 and 5279.628
PfMDH; Temperature 83.5
  TSA melting curve raw fluorescence signal: 5009.082 and 5563.202 and 5242.696
PfMDH; Temperature 84
  TSA melting curve raw fluorescence signal: 4988.359 and 5539.6 and 5205.226
PfMDH; Temperature 84.5
  TSA melting curve raw fluorescence signal: 4967.168 and 5515.215 and 5167.448
PfMDH; Temperature 85
  TSA melting curve raw fluorescence signal: 4945.239 and 5489.971 and 5129.648
PfMDH; Temperature 85.5
  TSA melting curve raw fluorescence signal: 4923.212 and 5463.869 and 5091.727
PfMDH; Temperature 86
  TSA melting curve raw fluorescence signal: 4900.827 and 5436.832 and 5053.765
PfMDH; Temperature 86.5
  TSA melting curve raw fluorescence signal: 4877.872 and 5409.317 and 5016.032
PfMDH; Temperature 87
  TSA melting curve raw fluorescence signal: 4854.433 and 5381.152 and 4978.26
PfMDH; Temperature 87.5
  TSA melting curve raw fluorescence signal: 4830.501 and 5352.422 and 4939.972
PfMDH; Temperature 88
  TSA melting curve raw fluorescence signal: 4805.564 and 5322.651 and 4900.899
PfMDH; Temperature 88.5
  TSA melting curve raw fluorescence signal: 4779.827 and 5291.937 and 4861.053
PfMDH; Temperature 89
  TSA melting curve raw fluorescence signal: 4753.311 and 5260.016 and 4820.436
PfMDH; Temperature 89.5
  TSA melting curve raw fluorescence signal: 4725.882 and 5227.256 and 4779.347
PfMDH; Temperature 90
  TSA melting curve raw fluorescence signal: 4698.144
